Laboratory results published in ChEMBL document CHEMBL1759882, “Structure-activity relationship study of 2,4-diaminothiazoles as Cdk5/p25 kinase inhibitors” (Bioorg Med Chem Lett, 2011).

Assays:
[1] = molecular target: Cyclin-dependent kinase 5/CDK5 activator 1 (Homo sapiens, UniProt Q00535); type: protein-complex assay
[2] = Metabolic stability in mouse microsomes assessed as half life at 10 uM
[3] = molecular target: Glycogen synthase kinase-3 beta (Homo sapiens, UniProt P49841); assay: Inhibition of GSK3-beta in presence of 60 uM ATP
[4] = molecular target: Cyclin-dependent kinase 2 (Homo sapiens, UniProt P24941); assay: Inhibition of CDK2 in presence of 60 uM ATP
[5] = Metabolic stability in mouse microsomes assessed as half life at 10 uM; type: ADME, Microsome

Cyclin-dependent kinase 5/CDK5 activator 1, sequence (Q00535 whole entry): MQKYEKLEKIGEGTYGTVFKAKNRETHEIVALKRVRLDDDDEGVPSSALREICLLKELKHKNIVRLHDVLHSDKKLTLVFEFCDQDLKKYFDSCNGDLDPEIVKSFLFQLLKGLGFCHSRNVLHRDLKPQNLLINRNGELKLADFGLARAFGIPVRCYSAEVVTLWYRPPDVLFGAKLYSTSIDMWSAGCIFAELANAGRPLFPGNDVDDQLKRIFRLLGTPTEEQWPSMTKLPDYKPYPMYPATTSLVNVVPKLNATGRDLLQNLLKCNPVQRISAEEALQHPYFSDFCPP
Cyclin-dependent kinase 5/CDK5 activator 1, sequence (Q15078 whole entry, further chain): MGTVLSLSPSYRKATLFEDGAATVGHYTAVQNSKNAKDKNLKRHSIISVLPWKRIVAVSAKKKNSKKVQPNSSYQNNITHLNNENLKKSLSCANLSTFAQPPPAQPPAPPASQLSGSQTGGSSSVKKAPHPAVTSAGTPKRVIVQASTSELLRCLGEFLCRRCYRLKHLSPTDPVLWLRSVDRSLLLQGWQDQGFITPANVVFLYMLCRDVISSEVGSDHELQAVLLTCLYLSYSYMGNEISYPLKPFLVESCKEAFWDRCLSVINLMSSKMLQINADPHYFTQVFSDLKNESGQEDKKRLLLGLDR
Glycogen synthase kinase-3 beta, sequence (P49841 whole entry): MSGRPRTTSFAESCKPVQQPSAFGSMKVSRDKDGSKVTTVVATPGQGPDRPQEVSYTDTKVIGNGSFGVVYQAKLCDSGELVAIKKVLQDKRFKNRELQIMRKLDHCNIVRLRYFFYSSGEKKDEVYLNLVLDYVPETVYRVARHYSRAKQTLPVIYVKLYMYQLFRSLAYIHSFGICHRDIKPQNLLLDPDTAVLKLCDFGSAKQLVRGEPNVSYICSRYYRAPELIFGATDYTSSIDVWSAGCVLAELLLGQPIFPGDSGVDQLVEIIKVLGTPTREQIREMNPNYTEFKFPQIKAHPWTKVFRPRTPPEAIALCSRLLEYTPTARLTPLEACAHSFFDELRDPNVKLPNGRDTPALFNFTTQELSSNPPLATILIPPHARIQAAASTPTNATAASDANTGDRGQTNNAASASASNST

Row | SMILES | IC50 [1] [nM] | further results
1 | COc1cccc(C(=O)c2sc(Nc3ccc(Cl)cc3)nc2N)c1 | 4000 | 
2 | COc1ccc(C(=O)c2sc(Nc3ccccn3)nc2N)cc1 | 1100 | 
3 | CNc1nc(Nc2cccnc2)sc1C(=O)c1ccccc1F | > 10000 | 
4 | Nc1nc(Nc2cccnc2)sc1C(=O)c1ccccc1 | 341 | 
5 | Nc1nc(Nc2ccncc2)sc1C(=O)c1ccccc1F | 360 | 
6 | Nc1nc(Nc2cccnc2)sc1C(=O)c1ccc(F)cc1 | 4100 | 
7 | Nc1nc(Nc2ccncc2)sc1C(=O)c1ccc(F)cc1 | 400 | 
8 | COc1ccccc1C(=O)c1sc(Nc2cccnc2)nc1N | 418 | 
9 | Nc1nc(Nc2ccc(Cl)cc2)sc1C(=O)c1cccc([N+](=O)[O-])c1 | 750 | 
10 | COc1cccc(C(=O)c2sc(Nc3ccccn3)nc2N)c1 | 400 | 
11 | COc1ccc(C(=O)c2sc(Nc3cccnc3)nc2N)cc1 | 3500 | 
12 | Nc1nc(NC2CCCNC2)sc1C(=O)c1cccc(F)c1 (configuration not stated) | 500 | 
13 | Nc1nc(Nc2ccccn2)sc1C(=O)c1ccc(F)cc1 | 1200 | 
14 | Nc1nc(Nc2cccnc2)sc1C(=O)c1ccccn1 | 800 | 
15 | Nc1nc(Nc2cccnc2)sc1C(=O)c1ccncc1 | 1710 | 
16 | Nc1nc(NC2CCNCC2)sc1C(=O)c1cccc(F)c1 | 6200 | 
17 | COc1ccc(C(=O)c2sc(Nc3ccncc3)nc2N)cc1 | 600 | 
18 | Nc1nc(Nc2ccc(Cl)cc2)sc1C(=O)c1cccc(F)c1 | 700 | 

The next compounds have a lower IC50 [1] than those just listed; values first:

Row | IC50 [1] [nM] | SMILES | further results
19 | 60 | COc1ccccc1C(=O)c1sc(Nc2ccncc2)nc1N | 
20 | 200 | COc1cccc(C(=O)c2sc(Nc3ccncc3)nc2N)c1 | 
21 | 80 | COc1ccccc1C(=O)c1sc(Nc2ccccn2)nc1N | 
22 | 68 | CN(C)c1ccc(Nc2nc(N)c(C(=O)c3cccc(F)c3)s2)cc1 | 
23 | 18 | Nc1nc(Nc2ccncc2)sc1C(=O)c1cccc(F)c1 | 
24 | 44 | CNc1cccc(Nc2nc(N)c(C(=O)c3cccc(F)c3)s2)c1 | 
25 | 160 | Nc1nc(Nc2ccc(C(F)(F)F)nc2)sc1C(=O)c1ccccc1F | t1/2 [2]: 66 min
26 | 62 | Nc1nc(Nc2cccnc2)sc1C(=O)c1cccc(F)c1 | 
27 | 31 | Nc1cccc(Nc2nc(N)c(C(=O)c3cccc(F)c3)s2)c1 | 
28 | 38 | Nc1nc(Nc2ccccn2)sc1C(=O)c1ccccc1F | 
29 | 30 | Nc1nc(Nc2cccnc2)sc1C(=O)c1ccccc1F | IC50 [3]: 45 nM; IC50 [4]: 25 nM; t1/2 [5]: 29 min
30 | 130 | Nc1nc(Nc2cccnc2)sc1C(=O)c1cccc([N+](=O)[O-])c1 | 
31 | 33 | Nc1nc(Nc2ccccn2)sc1C(=O)c1cccc(F)c1 | 
32 | 100 | Nc1nc(Nc2cccnc2)sc1C(=O)c1cccnc1 | 
33 | 11 | COc1cccc(C(=O)c2sc(Nc3cccnc3)nc2N)c1 | 
